Article PMC10305218, “Expression of β-Glucosidases from the Yak Rumen in Lactic Acid Bacteria: A Genetic Engineering Approach” (Microorganisms, 2023)

System: T1, Bgl
T1 construct: gene bglA; bglA-bglB fusion (usp45-bglA-usp45-bglB, pMG36e) secreted by L. lactis NZ9000; gene 2722 bp; printed about 75 kDa (less than the sum of both); supernatant / TCA-acetone precipitate
Assay: DNS reducing sugar assay, Michaelis-Menten / Lineweaver-Burk fit
Assay type: biochemical, Paenibacillus polymyxa
Conditions: 50 °C, pH 7.0; bacterial supernatant
Source text: DNS reducing sugar assay, Michaelis-Menten / Lineweaver-Burk fit on Bgl

Km: 34.8 µM
Structure (SMILES): OCc1ccccc1O[C@@H]1O[C@H](CO)[C@@H](O)[C@H](O)[C@H]1O [salicin]
